We go through 16 molecules from patent publication US9546157B2, “Asymmetric piperidinyl-substituted ureas as medicines” (Helsinn Healthcare SA, priority 2014, dated 2017).

Data set [1] deals with T1, GHSR1a (Homo sapiens, UniProt Q92847).
T1 construct: expressed in transfected cells; host or cells: HEK293
The experiment in a line: Calcium FLIPR assay, GHSR-1a antagonism (reduction of ghrelin response). The format is cell-based. Conditions: HEK293/GHSR1a cells, ghrelin 10 nM. Put shortly:
(§1)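 Relative fluorescence read-out (FLIPR) of intracellular calcium in HEK293/GHSR1a cells. For antagonist mode, compound and 10 nM ghrelin were co-added at t=20 sec, and inhibition of the ghrelin response over 2 minutes gave IC50. Agonist mode: compound alone at t=20 sec, response tracked 2 minutes; EC50 from dose-response.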

Data set [2] addresses T1, GHSR1a. The data set can be described thus: Calcium FLIPR assay, GHSR-1a agonism. Format: cell-based. Further details: Emax: unit not given here. Conditions: HEK293/GHSR1a cells. Put shortly: as §1
A further data set has as its system C57BL/6J mice. The experiment in a line: Food intake test in mouse (GHSR1a antagonists). The format is in vivo. Conditions: for inhibition in vivo at 30 mg/kg: i.p. 30 mg/kg. How it is done:
Male C57BL/6J mice, 18-22 g body weight, were fasted overnight (16 h before compound administration) and placed in a regular light dark cycle (6:00-18:00 light/18:00-6:00 dark). After 1 wk acclimation, animals were sorted into two groups (n=6 each, 2 per cage) based on body weight. Animals in group one were be treated with vehicle and animals in group 2 were treated with the test agent (n=6 for each group). The cumulative food intake was evaluated at 1, 2, 4, 8 and 24 hrs after drug or vehicle treatment. Food intake was measured by subtracting uneaten food from the initial premeasured food.

A short description of data set [3]: Metabolic Stability (H = Human). Format: in vitro ADME.
Data set [4] can be described thus: Metabolic Stability (M = Mouse). Format: in vitro ADME.
Setting [5] is: Mus musculus, ip, 1 h, i.p. 10 mg/kg.
The mark [6] stands for this setting: Mus musculus, ip, 2 h, i.p. 10 mg/kg.

T1 sequence (Q92847 whole entry): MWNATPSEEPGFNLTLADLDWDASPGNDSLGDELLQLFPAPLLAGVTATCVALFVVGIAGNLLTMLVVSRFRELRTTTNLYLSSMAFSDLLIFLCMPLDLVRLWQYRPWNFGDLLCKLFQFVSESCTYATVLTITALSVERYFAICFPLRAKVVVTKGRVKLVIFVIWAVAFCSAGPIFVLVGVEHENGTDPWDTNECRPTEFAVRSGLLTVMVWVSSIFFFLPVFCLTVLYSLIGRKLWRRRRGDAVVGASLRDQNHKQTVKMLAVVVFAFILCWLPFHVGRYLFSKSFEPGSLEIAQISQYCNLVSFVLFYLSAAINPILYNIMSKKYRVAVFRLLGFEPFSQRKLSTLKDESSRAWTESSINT

As to `COc1ccc(-c2ccc(C(C)NC(=O)N(C)C3CCN(C)CC3)c(Cl)c2Cl)cn1` (stereo not drawn) [Compound H0511, 3-(1-(2,3-dichloro-4-(6-methoxypyridin-3-yl)phenyl)ethyl)-1-methyl-1-(1-methylpiepridin-4-yl)urea], at GHSR1a [1], the IC50 is 98 nM. For the same molecule, the EC50 at GHSR1a [2] was > 30000 nM. The same molecule yielded an inhibition in vivo at 30 mg/kg in the data set on C57BL/6J mice (Mus musculus, ip, 1 h) of 94%. The “Metabolic Stability H” value in data set [3] is listed as “Medium H Medium M”. Also, in data set [4], the “Metabolic Stability M” value is recorded as “Medium H Medium M”.
Take `CC(NC(=O)N(C)C1CCN(C)CC1)c1ccc(-c2cncnc2)c(Cl)c1Cl` (stereo not drawn) [Compound H0516, 3-(1-(2,3-dichloro-4-(pyrimidin-5-yl)phenyl)ethyl)-1-methyl-1-(1-methylpiperidin-4-yl)urea]: the IC50 at GHSR1a [1] was 41 nM. Moreover, the EC50 at GHSR1a [2] was > 30000 nM. The molecule further displayed an inhibition in vivo at 30 mg/kg with C57BL/6J mice (Mus musculus, ip, 1 h) of 88%. The “Mouse Food Intake, result in words” value in the data set on C57BL/6J mice (PO, dose not given) is recorded as “no effect”. The “Metabolic Stability H” value in data set [3] is given as “High H High M”. In data set [4], the “Metabolic Stability M” value is “High H High M”.
Regarding `CC(NC(=O)N(C)C1CCN(C)CC1)c1ccc(-c2cccs2)c(Cl)c1Cl` (stereo not drawn) [Compound H0536, 3-(1-(2,3-dichloro-4-(thiophen-2-yl)phenyl)ethyl)-1-methyl-1-(1-methylpiperidin-4-yl)urea], the IC50 on GHSR1a [1] is 3 nM. In addition, on GHSR1a [2], the EC50 was > 30000 nM. The molecule further showed an inhibition in vivo at 30 mg/kg with C57BL/6J mice (Mus musculus, ip, 1 h) of 76%. For the same molecule, the “Metabolic Stability H” value in data set [3] is reported as “Medium H Medium M”. In data set [4], the “Metabolic Stability M” value is “Medium H Medium M”.
Consider `CC(NC(=O)N(Cc1ccc(CO)cc1)C1CCN(C)CC1)c1ccc(-c2cn[nH]c2)c(Cl)c1Cl` (stereo not drawn) [Compound H0553, 3-(1-(2,3-dichloro-4-(1H-pyrazol-4-yl)phenyl)ethyl)-1-(4-(hydroxymethyl)benzyl)-1-(1-methylpiperidin-4-yl)urea], for which, at GHSR1a [1], the IC50 was found to be 7 nM. Further, the EC50 at GHSR1a [2] was > 30000 nM. The molecule further displayed an inhibition in vivo at 10 mg/kg with C57BL/6J mice (setting [5]) of 57%. Also, in data set [3], the “Metabolic Stability H” value is “Medium”. The “Metabolic Stability M” value in data set [4] is “Poor”.
As for `CC(NC(=O)N(C)C1CCN(C)CC1)c1ccc(Br)c2ccccc12` (stereo not drawn) [Compound H0573, 3-(1-(4-bromonaphthalen-1-yl)ethyl)-1-methyl-1-(1-methylpiperidin-4-yl)urea], the IC50 on GHSR1a [1] came out at 36 nM. The EC50 on GHSR1a [2] is > 30000 nM. Moreover, in the data set on C57BL/6J mice (PO 30 mg/kg), the “Mouse Food Intake, result in words” value is listed as “PO: NSE (30 mg/kg)”. Further, the “Metabolic Stability H” value in data set [3] is “High”. Besides, the “Metabolic Stability M” value in data set [4] is recorded as “Medium”.
Consider `Cc1noc(-c2ccc(C(C)NC(=O)N(C)C3CCN(C)CC3)c(Cl)c2Cl)n1` (stereo not drawn) [Compound H0596, 3-(1-(2,3-dichloro-4-(3-methyl-1,2,4-oxadiazol-5-yl)phenyl)ethyl)-1-methyl-1-(1-methylpiperidin-4-yl)urea], for which the IC50 at GHSR1a [1] came out at 9 nM. The EC50 at GHSR1a [2] came out at 3 nM. The “Mouse Food Intake, result in words” value in the data set with C57BL/6J mice (i.p. 10 mg/kg) is “NSE (10 mg/kg)”. Also, the “Metabolic Stability H” value in data set [3] is “High H High M”. In addition, in data set [4], the “Metabolic Stability M” value was “High H High M”.
`C#Cc1ccc(C(C)NC(=O)N(C)C2CCN(C)CC2)c(Cl)c1Cl` (stereo not drawn) [Compound H0603, 3-(1-(2,3-dichloro-4-ethynylphenyl)ethyl)-1-methyl-1-(1-methylpiperidin-4-yl)urea]: the IC50 at GHSR1a [1] was 2 nM. Further, on GHSR1a [2], the EC50 was > 30000 nM. Besides, in the data set on C57BL/6J mice (setting [5]), testing at 10 mg/kg gave an inhibition in vivo of 34%. In the data set with C57BL/6J mice (Mus musculus, ip, 1 h, i.p. 0.1 mpk), this molecule showed an inhibition in vivo at 0.1 mg/kg of 71%. The molecule also showed an inhibition in vivo at 1 mg/kg in the data set on C57BL/6J mice (Mus musculus, ip, 1 h, i.p. 1 mpk) of 65%. In addition, the “Mouse Food Intake, result in words” value with C57BL/6J mice (SC, dose not given) is “SC NSE”. The “Mouse Food Intake inhibition, activity up to” value in the data set with C57BL/6J mice (i.p. 1 mpk) is ≤ 24 h. The “Metabolic Stability H” value in data set [3] is reported as “High H High M”. The “Metabolic Stability M” value in data set [4] was “High H High M”.
As for `COc1cncc(-c2ccc(C(C)NC(=O)N(C)C3CCN(C)CC3)c(Cl)c2Cl)c1` (stereo not drawn) [Compound H0607, 3-(1-(2,3-dichloro-4-(5-methoxypyridin-3-yl)phenyl)ethyl)-1-methyl-1-(1-methylpiperidin-4-yl)urea], the IC50 on GHSR1a [1] turned out to be 6 nM. For the same molecule, at GHSR1a [2], the 50% effective concentration (EC50) was determined as 31 nM and the Emax turned out to be 3000. Further, in the data set with C57BL/6J mice (i.p. 10 mg/kg), the “Mouse Food Intake, result in words” value was “NSE (10 mg/kg)”. Besides, in data set [3], the “Metabolic Stability H” value was “Medium H Medium M”. In addition, the “Metabolic Stability M” value in data set [4] is reported as “Medium H Medium M”.
On to `CC(NC(=O)N(C)C1CCN(C)CC1)c1ccc(-c2cncc(C#N)c2)c(Cl)c1Cl` (stereo not drawn) [Compound H0613, 3-(1-(2,3-dichloro-4-(5-cyanopyridin-3-yl)phenyl)ethyl)-1-methyl-1-(1-methylpiperidin-4-yl)urea], for which the IC50 on GHSR1a [1] amounted to 20 nM. The EC50 at GHSR1a [2] was > 30000 nM. Moreover, the “Mouse Food Intake, result in words” value in the data set with C57BL/6J mice (IP + ANAM 30 mpk PO, at 1 h) was “inhibition”; in the data set on C57BL/6J mice (PO, dose not given) it was “inhibition at 1 h”; with C57BL/6J mice (i.p. 10 mg/kg), “NSE”. In data set [3], the “Metabolic Stability H” value is on record as “High H High M”. In data set [4], the “Metabolic Stability M” value is given as “High H High M”.
As to `CC(NC(=O)N(C)C1CCN(C)CC1)c1ccc(-c2cncc(F)c2)c(Cl)c1Cl` (stereo not drawn) [Compound H0614, 3-(1-(2,3-dichloro-4-(5-fluoropyridin-3-yl)phenyl)ethyl)-1-methyl-1-(1-methylpiperidin-4-yl)urea], the IC50 at GHSR1a [1] amounted to 12 nM. Also, on GHSR1a [2], the concentration giving a half-maximal response (EC50) was > 30000 nM. For the same molecule, the “Mouse Food Intake, result in words” value with C57BL/6J mice (PO, dose not given) is reported as “No IP done, PO: NSE”. In data set [3], the “Metabolic Stability H” value was “High H High M”. The “Metabolic Stability M” value in data set [4] is reported as “High H High M”.
For `CC(NC(=O)N(C)C1CCN(C)CC1)c1ccc(-c2ncccn2)c(Cl)c1Cl` (stereo not drawn) [Compound H0619, 3-(1-(2,3-dichloro-4-(pyrimidin-2-yl)phenyl)ethyl)-1-methyl-1-(1-methylpiperidin-4-yl)urea], the IC50 on GHSR1a [1] was found to be 13 nM. For the same molecule, at GHSR1a [2], the EC50 was determined as 39 nM. Besides, the inhibition in vivo at 10 mg/kg with C57BL/6J mice (setting [5]) and in the data set with C57BL/6J mice (setting [6]) was 34% throughout. For the same molecule, the “Metabolic Stability H” value in data set [3] was “High H High M”. Moreover, the “Metabolic Stability M” value in data set [4] is given as “High H High M”.
In the case of `CC(NC(=O)N(O)C1CCN(C)CC1)c1ccc(C(F)F)c(Cl)c1Cl` (stereo not drawn) [Compound H0621, 3-(1-(2,3-dichloro-4-(difluoromethyl)phenyl)ethyl)-1-hydroxy-1-(1-methylpiperidin-4-yl)urea], the IC50 at GHSR1a [1] is > 30000 nM. On GHSR1a [2], the EC50 worked out at 2 nM and the Emax is reported as 3896. The “Mouse Food Intake, result in words” value in the data set with C57BL/6J mice (i.p., dose not given) is on record as “No Effect”. Further, the “Metabolic Stability H” value in data set [3] is listed as “High H High M”. Besides, the “Metabolic Stability M” value in data set [4] is reported as “High H High M”.
On to `Cc1cncc(-c2ccc(C(C)NC(=O)N(C)C3CCN(C)CC3)c(Cl)c2Cl)c1` (stereo not drawn) [Compound H0639, 3-(1-(2,3-dichloro-4-(5-methylpyridin-3-yl)phenyl)ethyl)-1-methyl-1-(1-methylpiperidin-4-yl)urea], for which, at GHSR1a [1], the IC50 was 48 nM. The EC50 at GHSR1a [2] is > 30000 nM. Besides, the “Mouse Food Intake, result in words” value in the data set on C57BL/6J mice (i.p. 10 mg/kg) is reported as “NSE (10 mg/kg)”. Also, in data set [3], the “Metabolic Stability H” value was “Medium H Medium M”. Besides, the “Metabolic Stability M” value in data set [4] is recorded as “Medium H Medium M”.
Take `COc1ncc(-c2ccc(C(C)NC(=O)N(C)C3CCN(C)CC3)c(Cl)c2Cl)cn1` (stereo not drawn) [Compound H0649, 3-(1-(2,3-dichloro-4-(2-methoxypyrimidin-5-yl)phenyl)ethyl)-1-methyl-1-(1-methylpiperidin-4-yl)urea]: the IC50 on GHSR1a [1] was 18 nM. In addition, at GHSR1a [2], the EC50 stood at 64 nM and the Emax is 1400. Moreover, 10 mg/kg produced 48% inhibition in vivo with C57BL/6J mice (setting [5]). Moreover, the inhibition in vivo at 10 mg/kg in the data set on C57BL/6J mice (setting [6]) came out at 48%. Also, the “Metabolic Stability H” value in data set [3] was “High H High M”. The “Metabolic Stability M” value in data set [4] is given as “High H High M”.
In the case of `CC(=O)c1ccc(-c2ccc(C(C)NC(=O)N(C)C3CCN(C)CC3)c(Cl)c2Cl)s1` (stereo not drawn) [Compound H0655, 3-(1-(4-(5-acetylthiophen-2-yl)-2,3-dichlorophenyl)ethyl)-1-methyl-1-(1-methylpiperidin-4-yl)urea], the IC50 at GHSR1a [1] was found to be 12 nM. Further, the EC50 at GHSR1a [2] is > 30000 nM. For the same molecule, the inhibition in vivo at 10 mg/kg in the data set with C57BL/6J mice (setting [5]) amounted to 70%. In addition, in data set [3], the “Metabolic Stability H” value is recorded as “Medium H Medium M”. Moreover, in data set [4], the “Metabolic Stability M” value is listed as “Medium H Medium M”.
Turning to `CC(NC(=O)N(O)C1CCN(C)CC1)c1ccc(-c2cncc(C#N)c2)c(Cl)c1Cl` (stereo not drawn) [Compound H0667, 3-(1-(2,3-dichloro-4-(5-cyanopyridin-3-yl)phenyl)ethyl)-1-hydroxy-1-(1-methylpiperidin-4-yl)urea], the IC50 on GHSR1a [1] is < 1 nM. Moreover, at GHSR1a [2], the EC50 came to 3 nM and the Emax worked out at 4887. This molecule also yielded an inhibition in vivo at 10 mg/kg in the data set with C57BL/6J mice (setting [5]) of 76%. Also, the “Metabolic Stability H” value in data set [3] is listed as “High H High M”. Moreover, the “Metabolic Stability M” value in data set [4] is “High H High M”.

In general, IC50 refers to the concentration that gives 50% inhibition. What is called EC50 is the concentration giving half of the maximal effect. As usually defined, the inhibition in vivo is the drop in the measured response relative to a control, in per cent.
